Common to all, as to format: in vivo
The test system of series [1] is Zea mays. Briefly: Greenhouse post-emergence herbicidal activity on crop ZEAMX (corn, maize). Further details: key: 0 = no damage/normal growth, 100 = no emergence or complete destruction. The conditions noted are these: ZEAMX (corn, crop), scale 0 to 100. An outline of the steps: (§1)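 Post-emergence spray, water suspension/emulsion, on 3-15 cm plants in loamy sand with ~3.0% humus. 10-25° C. or 20-35° C. per species; 2-4 wk. Visual score 0-100, 100 = complete kill.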

Series [2] relates to Echinocloa crus-galli. The experiment in a line: Greenhouse post-emergence herbicidal activity, ECHCG. The following applies: Echinochloa crus-galli, ECHCG, scale 0 to 100. An outline of the steps: as §1
Series [3] concerns Amaranthus retroflexus. The experiment in a line: Greenhouse post-emergence herbicidal activity, AMARE. The following applies: AMARE, 1 kg/ha, scale 0 to 100. The method in brief: as §1
Series [4] concerns Chenopodium album. Briefly: Greenhouse post-emergence herbicidal activity, CHEAL. The following applies: scale 0 to 100. The method in brief: as §1
In series [5] the test system is Ambrosia artemisiifolia. Briefly: Greenhouse post-emergence herbicidal activity, AMBEL. The conditions noted are these: scale 0 to 100. An outline of the steps:
as §1

In series [6] the test system is Oryza sativa. The experiment in a line: Greenhouse post-emergence herbicidal activity on crop ORYSA (rice). The following applies: ORYSA (rice, crop), 0.031 kg/ha, scale 0 to 100. The method in brief:
as §1

Series [7] has as its system Panicum miliaceum. The experiment in a line: Greenhouse post-emergence herbicidal activity, PANMI. The conditions noted are these: 0.031 kg/ha, scale 0 to 100. The text has this:
The culture containers used were plastic flowerpots containing loamy sand with approximately 3.0% of humus as the substrate. The seeds of the test plants were sown separately for each species.
For the post-emergence treatment, the test plants were first grown to a height of 3 to 15 cm, depending on the plant habit, and only then treated with the active ingredients which had been suspended or emulsified in water. For this purpose, the test plants were either sown directly and grown in the same containers, or they were first grown separately as seedlings and transplanted into the test containers a few days prior to treatment.
Depending on the species, the plants were kept at 10-25° C. or 20-35° C., respectively.
The test period extended over 2 to 4 weeks. During this time, the plants were tended, and their response to the individual treatments was evaluated.
Evaluation was carried out using a scale from 0 to 100. 100 means no emergence of the plants, or complete destruction of at least the aerial moieties, and 0 means no damage, or normal course of growth. A good herbicidal activity is given at values of at least 70 and a very good herbicidal activity is given at values of at least 85.

In series [8] the test system is Abutilon theophrasti. The experiment in a line: Greenhouse post-emergence herbicidal activity, ABUTH. The conditions noted are these: ABUTH, scale 0 to 100. The method in brief: as §1

Regarding `CN(c1c(Cl)ccc(C2=C(O)c3ncccc3CS2(=O)=O)c1Cl)S(=O)(=O)C1CC1` [I-27, N-[2,6-dichloro-3-(8-hydroxy-6,6-dioxo-5H-thiopyrano[4,3-b]pyridin-7-yl)phenyl]-N-methyl-cyclopropanesulfonamide], the Herbicidal activity in series [1] (0.031 kg/ha) amounted to 15; in series [1] (0.063 kg/ha), 20; in series [5] (0.031 kg/ha) it was 70; in series [5] (0.063 kg/ha), 75; in series [6] it was 40; in series [7] it was 75. Further, the pest or weed control at 63 g/ha in series [2] (0.063 kg/ha) amounted to 98%; in series [4] (0.063 kg/ha) it was 100%. Moreover, the values for the pest or weed control at 125 g/ha in series [2] (0.125 kg/ha), in series [4] (0.125 kg/ha) and in series [8] (0.125 kg/ha) were 98%, 100% and 80%, respectively. Further, the pest or weed control at 1000 g/ha was determined as 98% in series [2] (1 kg/ha), 100% in series [3] and 95% in series [8] (1 kg/ha). In series [4] (0.031 kg/ha), this compound came in with a pest or weed control at 31 g/ha of 100%.

As a reminder, the pest or weed control is how far the test organism was held down.

For the origin of these results see patent publication US10023590B2, “Substituted pyridine compounds having herbicidal activity” (BASF SE, priority 2014, dated 2018).
